Read-outs that look alike come from different tables or passages of the source. Non-standard residues stand in square brackets, D forms with d. Residues, ends and D or L forms follow the SMILES beside them. *: point of attachment. Acetyl(1-pyrenyl) = O=C(Cc1ccc2ccc3cccc4ccc1c2c34)*; d(pY) = N[C@H](Cc1ccc(OP(=O)(O)O)cc1)C(=O)O; pY = N[C@@H](Cc1ccc(OP(=O)(O)O)cc1)C(=O)O
Assays:
proteinase K = proteinase K (Parengyodontium album, UniProt P06873); assay: Proteolytic stability against proteinase K, followed by LC/MS
proteinase K, sequence (P06873 106-384): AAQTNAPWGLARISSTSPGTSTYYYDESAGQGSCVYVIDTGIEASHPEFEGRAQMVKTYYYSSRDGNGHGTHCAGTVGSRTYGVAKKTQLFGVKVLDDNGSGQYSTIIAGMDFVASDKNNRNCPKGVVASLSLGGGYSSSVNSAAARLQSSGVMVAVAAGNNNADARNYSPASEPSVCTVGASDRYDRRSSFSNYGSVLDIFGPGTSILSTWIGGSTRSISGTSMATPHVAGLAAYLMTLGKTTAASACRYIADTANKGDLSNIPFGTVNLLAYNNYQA
Experimental: At designated time points, we quenched the reactions and analyzed them by LC/MS (Figures S34, S52–S53, and Table S1).
Proteinase K Treatment: To 200 µL solutions containing peptides 1, 2, 3, 4, and their mixtures (1/2, 1/4, 3/2, 3/4) in double-distilled water, 2 µL of a 100 mg/mL proteinase K stock solution was added to achieve a final concentration of 1 mg/mL. The reactions were incubated at 37 °C. For controls, 40 µL aliquots were withdrawn from each solution prior […]
were rapidly frozen in liquid nitrogen to stop the reaction. Samp les were then lyophilized at −80 °C, reconstituted in 0.1% TFA in H2O/acetonitrile (1:1 v/v), filtered, and analyzed […]
LC/MS analysis was performed with solvent A (water + 0.1% formic acid) and solvent B (acetonitrile + 0.1% formic acid) with a gradient program using the following separation […]
13.1 min 95%A, 5%B; 14 min 95%A, 5%B. The mass spectrometer was operated in positive ion mode, scanning a range of 50 –3000 m/z.

[1] = tested on: alkaline phosphatase (ALP); details: 1 U/mL ALP, 37 °C, neutral pH, monomeric peptide, LC/MS
Description: (§1) (D) Kinetics of ALP-mediated dephosphorylation under similar conditions using 1 U/mL ALP.
(§2) To further validate the structural hypothesis, we performed enzymatic assays using ALP, which removes phosphate groups from both D- and L-tyrosines and has been widely used to explore enzyme-instructed self-assembly (EISA). , This setup isolates Pyn-EEEEEpY as the reactive component, allowing us to assess the impact of coassembly with Pyn-KKKKKK on dephosphorylation kinetics. Using the same protocol as the protease experiments, we measured the rate of dephosphorylation for Pyn-EEEEEpY monomers and their homo- and heterochiral mixtures with two equivalents of Pyn-KKKKKK (Figure S54 and Table S2).

[2] = tested on: alkaline phosphatase (ALP); assay: in vitro; details: alkaline phosphatase (ALP, 1 U/mL)
Description: as §1, §2

Pyn-(L)-EEEEEpY/Pyn-(L)-KKKKKK [1/4]
increase in half-life compared to the L-peptide (1) alone (proteinase K): 287 fold
thalf of Pyn-(L)-EEEEEpY (1) in proteinase K digestion (proteinase K): 2872 min

O=C(O)CC[C@H](NC(=O)Cc1ccc2ccc3cccc4ccc1c2c34)C(=O)N[C@@H](CCC(=O)O)C(=O)N[C@@H](CCC(=O)O)C(=O)N[C@@H](CCC(=O)O)C(=O)N[C@@H](CCC(=O)O)C(=O)N[C@@H](Cc1ccc(OP(=O)(O)O)cc1)C(=O)O [compound 1, Pyn-(L)-EEEEEpY] ({Acetyl(1-pyrenyl)}-EEEEE[pY]-OH)
time to almost complete proteolysis (proteinase K; 1 mg/mL proteinase K, 37 °C, neutral pH, 1 mM monomeric peptide, LC/MS): ≤ 30 min
thalf of Pyn-(L)-EEEEEpY (1) in proteinase K digestion (proteinase K; 1 mg/mL proteinase K, 37 °C, neutral pH, double-distilled water, 1 mM 1 alone or 500 μM 1 with 2 equiv of 2 or 4, sampled 5 min, 30 min, 2 h, 24 h, kinetic analysis of HPLC peak areas (LC/MS)): approximately 10 min
half-life at 1 mM (proteinase K; isolated enzyme proteinase k): 10 min
time to complete dephosphorylation [1]: ≤ 30 min
half-life [2]: 4.7 min

O=C(O)CC[C@@H](NC(=O)Cc1ccc2ccc3cccc4ccc1c2c34)C(=O)N[C@H](CCC(=O)O)C(=O)N[C@H](CCC(=O)O)C(=O)N[C@H](CCC(=O)O)C(=O)N[C@H](CCC(=O)O)C(=O)N[C@H](Cc1ccc(OP(=O)(O)O)cc1)C(=O)O [compound 3, Pyn-(D)-eeeeepy] ({Acetyl(1-pyrenyl)}-[dE][dE][dE][dE][dE][d(pY)]-OH)
time to complete dephosphorylation [1]: ≤ 30 min
half-life [2]: 9.6 min

Pyn-(L)-EEEEEpY/Pyn-(D)-kkkkkk [1/2]
cleavage slower than for Pyn-(L)-EEEEEpY (1) alone (proteinase K): over 360 times
state of Pyn-(L)-EEEEEpY (1) under proteinase K for up to 24 h (proteinase K): remained largely intact
thalf of Pyn-(L)-EEEEEpY (1) in proteinase K digestion (proteinase K): > 3600 min

NCCCC[C@H](NC(=O)[C@H](CCCCN)NC(=O)[C@H](CCCCN)NC(=O)[C@H](CCCCN)NC(=O)[C@H](CCCCN)NC(=O)[C@H](CCCCN)NC(=O)Cc1ccc2ccc3cccc4ccc1c2c34)C(=O)O [compound 4, Pyn-(L)-KKKKKK]
proteolysis of Pyn-(L)-KKKKKK (4) alone (proteinase K; 1 mg/mL proteinase K, 37 °C, peptide alone, LC/MS (Figure S35B)): largely resistant to proteolysis

Source: PMC12593409, “Heterochiral and Heterotypic Self-Assembly of Intrinsically Disordered Peptides Confers Peptide Supercoils with Exceptional Proteolytic Stability” (Journal of the American Chemical Society, 2025)
